Converted amounts (≈) assume the structure as drawn. “And” between values parts separate entries of the source, which are not always exact repeats. Identical values can stand only once. Like-named read-outs stand apart in the source and are kept apart here. Marks after values point to notes of the source that are not given here. Blank lines part the entries; values can stand above or below the compound they belong to.
Key:
[1] = Storage stability of beta-keto calcium salt prodrug of Nabumetone (17 days at 60° C., HPLC); format: physicochemical
[2] = Aqueous solubility of sodium beta-keto salt prodrug of Nabumetone (Example 13b); format: physicochemical
Method: 12.1 mg of the of ethyl-5-(6-methoxy-2-naphthyl)-beta-keto-pentanoate product prepared and purified as in Example 8 was mixed with 25 mL of a 0.5 M aqueous solution NaOH and homogenised on a vortex mixer. […] 15 minutes after preparation of the sample, the sample was transferred to an oil bath set at 37° C. with continuous gentle magnetic stirring, and kept there for 3.5 hours. Crystalline flakes remained in the sample at the end of the 3.5 hours heat-treatment, and the sample was thereafter centrifuged and the clear liquid above the sedimented crystals was analysed by HPLC as described above.
After storage around one hour at room temperature a fraction of the sample was then filtered twice through a 0.2 μm filter (Whatman, 0.2 μm PS) fitted to a syringe to give a clear solution. 200 μL of this filtered solution was transferred, in a tightly closed vessel, to an oil bath at 95° C. and kept at this temperature for about 5 hours to bring about quantitative decarboxylation of the labile, dissolved beta-keto carboxylic salt prodrug derivative of Nabumetone.
The heated sample was then mixed with 35 mL of mobile phase (see Example 1) whereby a few solid crystals (comprising Nabumetone) was seen to not dissolve. In order to assure a correct sampling for HPLC analysis, 5 mL of the 35 mL sample was filtered through a 0.2 μm filter, after the whole 35 mL sample had been pH adjusted to 4.21 by 300 μL 0.1 M HCl+100 μL 1 M HCl, to assure that the pH of the sample was close to the pH of the mobile phase itself (pH 4.30). The filtered solution was thereafter analysed by HPLC and found to contain 0.777 mg Nabumetone per liter. If recalculated to the corresponding concentration of nabumetone equivalents in the form of the beta-keto salt prodrug present in dissolved form in the filtered 200 μl sample that was subsequently heat-treated to form Nabumetone above, the obtained concentration corresponds to a Nabumetone concentration of 136.7 mg Nabumetone per liter in the clear aqueous solution, at room temperature, before the heat-treatment at 95° C.

[3] = water at 25° C.; Sepassi et al, 2007; cited from earlier work
[4] = Sustained release of Nabumetone from beta-keto sodium salt prodrug in phosphate buffer at blood pH and 37° C.; format: physicochemical; conditions: released from beta-keto salt prodrug, phosphate buffer pH about 7.4, 37° C.
Method: 20.91 mg of the product synthesised as described in Example 8 (however in this case not purified by the chromatographic step in Example 8) was mixed with 1 ml 0.5 M NaOH at room temperature, whereby a portion of the sample was dissolved. After 30 minutes the mixture was placed in an oven at 37° C., and 10 μl samples was taken at regular intervals, diluted with 1 ml mobile phase (as in Example 1), and analyzed by HPLC, using UV-detection at 240 nm. 3.0 hours after initiation of the saponification reaction, the precursor (retention time 4.6 min) could no longer be detected, and the precursor peak was replaced by a peak from the intermediary beta-keto salt prodrug (retention time 2.3 minutes). At this point in time, a solution of 9 ml H2O and 0.0762 g NaH2PO4 was added to the sample, in order to create a NaH2PO4/Na2HPO4 pH buffer by neutralization of the NaOH remaining in the sample. […] The sample was again placed in the oven at 37° C. and the decarboxylation of the beta-keto salt in solution, gradually giving the commercially available drug Nabumetone, was followed by HPLC by taking 100 μl samples at regular intervals and diluting them with 1 ml mobile phase (see Example 1 above) before injection on the HPLC. It can be seen from the data that Nabumetone was continuously released into the solution via the spontaneous, non-enzymatic decarboxylation of the dissolved prodrug sodium salt, over a period of more than 120 hours. The half-life of the prodrug was estimated to be about 70 hours in this medium and under the conditions used.

[5] = In-vitro hydrolysis of Nabumetone beta-keto ester pro-prodrug and release of Nabumetone in model blood electrolyte solution at 37° C.; format: physicochemical; conditions: for Nabumetone formed in the solution: under-estimated, precipitating Nabumetone compromised sampling
[6] = Storage stability of benzoylacetate salts and their corresponding acid (HPLC or gravimetric); format: physicochemical; conditions: solid
Method: A 0.2 M solution of ethyl benzoyl acetate (90%, Sigma Aldrich) in 0.5 M NaOH (aq) was prepared at room temperature and stirred for typically 5-24 hours, still at room temperature. After this time a major part of the ethyl benzoyl acetate had been transformed into dissolved sodium benzoyl acetate, as evidenced by monitoring the reaction by analysis of samples by reversed phase HPLC. Some acetophenone and remaining ethyl benzoyl acetate were typically present in the samples, but in minor amounts. The method employed a C8 column with an inner diameter of 150×4.6 mm and 5 micron particles. The mobile phase consisted of 400 ml deionized water+600 ml acetonitrile+0.196 g H3PO4 (85%)+2.760 g NaH2PO4*H2O. The flow rate was set to 1.0 mL/min and UV detection at 254 nm was employed for analysis of the compounds ethylbenzoylacetate (precursor), benzoylacetate (model prodrug) and acetophenone (model drug).
The storage stability of the sodium and calcium salts of benzoylacetate, and of benzoylacetic acid, in solid form, and in aqueous solutions, was investigated by storage of samples under various conditions (see Table 3a above) with regular HPLC- or gravimetric measurements of the samples from time to time. Samples denoted “neutralized” were prepared from a solution prepared as described in Example 1, which was neutralized with diluted HCl after performing the steps in Example 1.
From the data it can be concluded that the best storage stability at room temperature is obtained by storage in the form of the calcium salt.

[7] = Re-activation of storage stabile beta-keto calcium salt by dissolution, release of ketone (odour); format: physicochemical
Method: 25 mg of the precipitated and dried calcium salt prepared in Example 2, was, after being subjected to the storage stability test of Example 4, dissolved in 5.66 g of tap water and boiled for two minutes.

[8] = Aqueous solubility of benzoylacetate salts (Example 13a); conditions: water
rat = conditions: cited from earlier work

Relative amount of calcium salt beta-keto prodrug/Nabumetone remaining after 17 days at 60° C. ([1]; 408 h): 45.3%
Obtained value (area units) ([1]; dry calcium salt after 17 days at 60° C., redissolved in water, HPLC): 1315 area units
Expected value if no breakdown occured during storage and a 100% yield was obtained upon precipitation with calcium chloride ([1]; recalculated for dilution): 90 area units
Nabumetone found in filtered solution by HPLC ([2]; 200 μL filtered prodrug solution decarboxylated at 95° C. for about 5 hours, mixed with 35 mL mobile phase): 0.777 mg Nabumetone per liter
Area at retention time 3.8 minutes characteristic for detection of Nabumetone ([2]; clear liquid after 3.5 h at 37° C. in 0.5 M NaOH, 200 μL diluted with 5.0 ml mobile phase): 59 arbitrary units
Nabumetone (HPLC area @ 3.8 min) ([4]; 3.25 h after initiation of saponification): 0
Nabumetone (HPLC area @ 3.8 min) ([4]; 5.1 h after initiation of saponification): 0
Nabumetone (HPLC area @ 3.8 min) ([4]; 21.45 h after initiation of saponification): 5265
Nabumetone (HPLC area @ 3.8 min) ([4]; 24.25 h after initiation of saponification): 5388 and 5496
Nabumetone (HPLC area @ 3.8 min) ([4]; 28.15 h after initiation of saponification): 5804
Nabumetone (HPLC area @ 3.8 min) ([4]; 45.4 h after initiation of saponification): 10083
Nabumetone (HPLC area @ 3.8 min) ([4]; 50 h after initiation of saponification): 11400
Nabumetone (HPLC area @ 3.8 min) ([4]; 78 h after initiation of saponification): 13359
Nabumetone (HPLC area @ 3.8 min) ([4]; 117 h after initiation of saponification): 18156
Nabumetone (HPLC area @ 3.8 min) ([4]; 194 h after initiation of saponification): 22484
storage time after which sedimenting crystalline flakes of Nabumetone were detected in the sample ([5]; model blood solutes solution): 100 to 150 h
Nabumetone staying in a stabile dispersion (theoretical concentration) ([5]; model blood solutes solution with surface active beta-keto anion prodrug): 40 mg/L
Nabumetone formed in the solution ([5]; model blood solutes solution, Time 96.8 hours): (2656)* mg/L
Nabumetone formed in the solution ([5]; model blood solutes solution, Time 121.25 hours): (2715)* mg/L
Nabumetone formed in the solution ([5]; model blood solutes solution, Time 145.0 hours): (2423)* mg/L
Nabumetone formed in the solution ([5]; model blood solutes solution, Time 172.6 hours): (3508)* mg/L
Nabumetone formed in the solution ([5]; model blood solutes solution, Time 197.3 hours): (3240)* mg/L
Nabumetone formed in the solution ([5]; model blood solutes solution, Time 218.4 hours): (3859)* mg/L
Nabumetone formed in the solution ([5]; model blood solutes solution, Time 293.7 hours): (3013)* mg/L
Compound: COc1ccc2cc(CCC(C)=O)ccc2c1 [Nabumetone, 4-(6-methoxy-2-naphthyl)-2-butanone]
Solubility [3]: 0.0047 mg/mL (≈ 20.6 µM)

Absolute amount of calcium benzoylacetate in sample (wt %, from HPLC) ([6]; 1 days at room T and typical indoor humidity, 0 days at 50% RH and room T, 0 days at 60° C. in oven): 35.9 wt %
Absolute amount of calcium benzoylacetate in sample (wt %, from HPLC) ([6]; 1.9 days at room T and typical indoor humidity, 0 days at 50% RH and room T, 0 days at 60° C. in oven): 34.2 wt %
Absolute amount of calcium benzoylacetate in sample (wt %, from HPLC) ([6]; 8 days at room T and typical indoor humidity, 0 days at 50% RH and room T, 0 days at 60° C. in oven): 43.0 wt %
Absolute amount of calcium benzoylacetate in sample (wt %, from HPLC) ([6]; 9 days at room T and typical indoor humidity, 0 days at 50% RH and room T, 103 days at 60° C. in oven): 45.6 wt %
Absolute amount of calcium benzoylacetate in sample (wt %, from HPLC) ([6]; 9 days at room T and typical indoor humidity, 103 days at 50% RH and room T, 0 days at 60° C. in oven): 32.1 wt %
Absolute amount of calcium benzoylacetate in sample (wt %, from HPLC) ([6]; 28 days at room T and typical indoor humidity, 0 days at 50% RH and room T, 0 days at 60° C. in oven): 33.1 wt %
Absolute amount of calcium benzoylacetate in sample (wt %, from HPLC) ([6]; 112 days at room T and typical indoor humidity, 0 days at 50% RH and room T, 0 days at 60° C. in oven): 40.4 wt %
release of acetophenone (odour) ([7]; 25 mg dissolved in 5.66 g tap water and boiled for two minutes, after storage stability test): strong odour of acetophenone
Solubility ([8]; as Ca(benzoylacetate)2, corrected for 40 wt % content): 69 mM
Solubility (mM, as acetophenone equivalents) ([8]; benzoylacetate in the solution, corrected for 40 wt % content): 138 mM
solubility limit ([8]; dry calcium salt sample containing only 40 wt % calcium benzoyl acetate): ~63 mg/mL
Compound: O=C([O-])CC(=O)c1ccccc1.O=C([O-])CC(=O)c1ccccc1.[Ca+2] [calcium benzoylacetate, Ca(benzoylacetate)2]
release of acetophenone (odour) ([7]; similar amount kept in dry form in an identical beaker): did not give rise to any acetophenone odour

Compound: CCN [ethyl amine]
LD50 (rat): 280 mg/kg

Compound: CN [methyl amine]
LD50 (rat): 100 mg/kg

— patent US20120065179A1, “PRODRUG COMPRISING BETA-KETO CARBOXYLIC ACID, BETA-KETO CARBOXYLIC ACID SALT OR BETA-KETO CARBOXYLIC ACID ESTER FOR DRUG DELIVERY” (YKI, Ytemiska Institutet AB, priority 2009, published 2012)
